Results published in PubChem BioAssay (NCI).
“And” between values parts separate entries of the source, which are not always exact repeats. Equal entries are not always repeated.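 Tested at 5 concentrations; 48 h exposure; 96-well plates; endpoints linearly interpolated, else capped at highest concentration. GI50 marks 50% less growth. Definition used: TGI = concentration required for complete inhibition of growth.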

What was measured:
Test in all cases: NCI tumour cell line growth inhibition, 48 h
MDA-MB-231 breast = test system: MDA-MB-231 breast
XF 498 CNS = test system: XF 498 CNS
LXFL 529 NSCLC = test system: LXFL 529 NSCLC
RXF-631 renal = test system: RXF-631 renal
MDA-N = test system: MDA-N
MCF7 breast = test system: MCF7 breast
DLD-1 colon = test system: DLD-1 colon
DMS 114 small cell lung = test system: DMS 114 small cell lung
P388 leukemia = test system: P388 leukemia
HOP-18 NSCLC = test system: HOP-18 NSCLC
SN12K1 renal = test system: SN12K1 renal

| Compound | GI50 (MDA-MB-231 breast) [µM] | TGI (MDA-MB-231 breast) | GI50 (XF 498 CNS) [µM] | TGI (XF 498 CNS) | GI50 (LXFL 529 NSCLC) [µM] | TGI (LXFL 529 NSCLC) | GI50 (RXF-631 renal) [µM] | TGI (RXF-631 renal) | GI50 (MDA-N) [µM] | TGI (MDA-N) | TGI (MCF7 breast) | GI50 (DLD-1 colon) [µM] | TGI (DLD-1 colon) | GI50 (DMS 114 small cell lung) [µM] | TGI (DMS 114 small cell lung) | TGI (P388 leukemia) [µM] | GI50 (HOP-18 NSCLC) [µM] | TGI (HOP-18 NSCLC) | TGI (SN12K1 renal) [µM] |
| --- | --- | --- | --- | --- | --- | --- | --- | --- | --- | --- | --- | --- | --- | --- | --- | --- | --- | --- | --- |
| O=C(O)CCCc1ccc(N(CCCl)CCCl)cc1 | 265 | 334 µM and 606 µM | 12.1 | 31.9 µM and 158 µM | 19.5 | 35.4 µM and 199 µM | 19.7 | 47.7 µM and 277 µM | 194 | 271 µM and 325 µM | 379 µM and 431 µM | 24.3 | 54.8 µM and 280 µM | 7.84 | 32.4 µM and 179 µM | 135 | 17.7 | > 70 µM and 267 µM | 238 |
| CC(=O)/C=C/c1cccc(N=S)c1 |  |  |  | > 100 µM |  | 32.9 µM |  | > 100 µM |  |  |  |  | 16.5 µM |  | > 66.1 µM |  |  | > 100 µM |  |
| COc1cc2c(c(O)c1C)C(=O)C(Cl)=CC2=O |  | 27.8 µM |  | 35.2 µM |  | 19.4 µM |  | 17.6 µM |  | 12.1 µM | 15.8 µM |  | 48.5 µM |  | 32.8 µM |  |  | 30.1 µM |  |
| CC1(C)N=C(N)N=C(N)N1c1ccc(CCCCc2ccc(S(=O)(=O)F)cc2Cl)c(Cl)c1 |  | 82.3 µM |  | 3 µM |  |  |  |  |  | 39.5 µM | 28.7 µM |  | 118 µM |  | 16.4 µM | 6.36 |  | 121 µM | 6.92 |
